In ChEMBL document CHEMBL6083251, “"Pseudosubstrate Envelope"/Free Energy Perturbation-Guided Design and Mechanistic Investigations of Benzothiazole HIV Capsid Modulators with High Ligand Efficiency” (J Med Chem, 2024):

System: not listed separately
Assay: Selectivity ratio of EC50 for wild type HIV-1 IIIB infected in human MT4 cells to EC50 for HIV-2 ROD infected in human MT-4 cells assessed as protection against virus-induced cytopathic effect incubated for 5 days by spectrophotometric based MTT assay
Assay type: functional
Details: time 5 day
In the case of `Cc1[nH]c2ccc(F)cc2c1CC(=O)N[C@@H](Cc1cc(F)cc(F)c1)C(=O)N(C)c1ccc2scnc2c1`, the “Ratio EC50” value is reported as 0.23. With `Cc1ccc2[nH]cc(CC(=O)N[C@@H](Cc3cc(F)cc(F)c3)C(=O)N(C)c3ccc4scnc4c3)c2c1` the “Ratio EC50” value was 0.22. For `CN(C(=O)[C@H](Cc1cc(F)cc(F)c1)NC(=O)Cc1c[nH]c2cccc(Cl)c12)c1ccc2scnc2c1`, the “Ratio EC50” value was 0.1. For `CN(C(=O)[C@H](Cc1cc(F)cc(F)c1)NC(=O)Cc1c[nH]c2cc(F)ccc12)c1ccc2scnc2c1`, the “Ratio EC50” value was 0.1. In the case of `COc1ccc2[nH]cc(CC(=O)N[C@@H](Cc3cc(F)cc(F)c3)C(=O)N(C)c3ccc4scnc4c3)c2c1`, the “Ratio EC50” value is reported as 0.14. In the case of `CN(C(=O)[C@H](Cc1cc(F)cc(F)c1)NC(=O)Cc1c[nH]c2cc(Br)ccc12)c1ccc2scnc2c1`, the “Ratio EC50” value is reported as 0.4. In the case of `Cc1cc(C)n(CC(=O)N[C@@H](Cc2cc(F)cc(F)c2)C(=O)N(C)c2ccc3scnc3c2)n1`, the “Ratio EC50” value is reported as 0.09.

System: MT4
Assay: Cytotoxicity against human MT4 cells assessed as reduction in cell viability incubated for 5 days by spectrophotometric based MTT assay
Assay type: functional
Details: MT4, 120 h, time 5 day
In the case of `Cc1[nH]c2ccc(F)cc2c1CC(=O)N[C@@H](Cc1cc(F)cc(F)c1)C(=O)N(C)c1ccc2scnc2c1`, the CC50 is reported as 24900 nM. `Cc1ccc2[nH]cc(CC(=O)N[C@@H](Cc3cc(F)cc(F)c3)C(=O)N(C)c3ccc4scnc4c3)c2c1` gave a CC50 of 26400 nM. `CN(C(=O)[C@H](Cc1cc(F)cc(F)c1)NC(=O)Cc1c[nH]c2cccc(Cl)c12)c1ccc2scnc2c1` gave a CC50 of 24400 nM. For `CN(C(=O)[C@H](Cc1cc(F)cc(F)c1)NC(=O)Cc1c[nH]c2cc(F)ccc12)c1ccc2scnc2c1`, the CC50 was 25200 nM. In the case of `COc1ccc2[nH]cc(CC(=O)N[C@@H](Cc3cc(F)cc(F)c3)C(=O)N(C)c3ccc4scnc4c3)c2c1`, the CC50 is reported as 73200 nM. For `CN(C(=O)[C@H](Cc1cc(F)cc(F)c1)NC(=O)Cc1c[nH]c2cc(Br)ccc12)c1ccc2scnc2c1`, the CC50 was 23300 nM. `Cc1cc(C)n(CC(=O)N[C@@H](Cc2cc(F)cc(F)c2)C(=O)N(C)c2ccc3scnc3c2)n1` showed a CC50 of over 259000 nM.

System: not listed separately
Assay: Selectivity index, ratio of CC50 for human MT4 cells to EC50 for HIV-2 ROD infected in human MT-4 cells
Assay type: toxicity, cell-based
Details: read-out: Selectivity Index
With `Cc1[nH]c2ccc(F)cc2c1CC(=O)N[C@@H](Cc1cc(F)cc(F)c1)C(=O)N(C)c1ccc2scnc2c1` the selectivity ratio was 33.4. `Cc1ccc2[nH]cc(CC(=O)N[C@@H](Cc3cc(F)cc(F)c3)C(=O)N(C)c3ccc4scnc4c3)c2c1` showed a selectivity ratio of 137. Work on `CN(C(=O)[C@H](Cc1cc(F)cc(F)c1)NC(=O)Cc1c[nH]c2cccc(Cl)c12)c1ccc2scnc2c1` yielded a selectivity ratio of 12.7. In the case of `CN(C(=O)[C@H](Cc1cc(F)cc(F)c1)NC(=O)Cc1c[nH]c2cc(F)ccc12)c1ccc2scnc2c1`, the selectivity ratio is reported as 153. Work on `COc1ccc2[nH]cc(CC(=O)N[C@@H](Cc3cc(F)cc(F)c3)C(=O)N(C)c3ccc4scnc4c3)c2c1` yielded a selectivity ratio of 460. With `CN(C(=O)[C@H](Cc1cc(F)cc(F)c1)NC(=O)Cc1c[nH]c2cc(Br)ccc12)c1ccc2scnc2c1` the selectivity ratio was 339. Work on `Cc1cc(C)n(CC(=O)N[C@@H](Cc2cc(F)cc(F)c2)C(=O)N(C)c2ccc3scnc3c2)n1` yielded a selectivity ratio of over 84.5.

System: Human immunodeficiency virus 2
Assay: Anti-HIV activity against HIV-2 ROD infected in human MT-4 cells assessed as protection against virus-induced cytopathic effect incubated for 5 days by spectrophotometric based MTT assay
Assay type: functional, organism-based
Details: Human immunodeficiency virus 2, ROD, MT4, 120 h
Compound `Cc1[nH]c2ccc(F)cc2c1CC(=O)N[C@@H](Cc1cc(F)cc(F)c1)C(=O)N(C)c1ccc2scnc2c1` has an EC50 of 745 nM. `Cc1ccc2[nH]cc(CC(=O)N[C@@H](Cc3cc(F)cc(F)c3)C(=O)N(C)c3ccc4scnc4c3)c2c1` showed an EC50 of 193 nM. In the case of `CN(C(=O)[C@H](Cc1cc(F)cc(F)c1)NC(=O)Cc1c[nH]c2cccc(Cl)c12)c1ccc2scnc2c1`, the EC50 is reported as 1930 nM. With `CN(C(=O)[C@H](Cc1cc(F)cc(F)c1)NC(=O)Cc1c[nH]c2cc(F)ccc12)c1ccc2scnc2c1` the EC50 was 165 nM. Work on `COc1ccc2[nH]cc(CC(=O)N[C@@H](Cc3cc(F)cc(F)c3)C(=O)N(C)c3ccc4scnc4c3)c2c1` yielded an EC50 of 159 nM. `CN(C(=O)[C@H](Cc1cc(F)cc(F)c1)NC(=O)Cc1c[nH]c2cc(Br)ccc12)c1ccc2scnc2c1` showed an EC50 of 68.6 nM. With `Cc1cc(C)n(CC(=O)N[C@@H](Cc2cc(F)cc(F)c2)C(=O)N(C)c2ccc3scnc3c2)n1` the EC50 was 3060 nM.

System: Human immunodeficiency virus 1
Assay: Anti-HIV activity against wild type HIV-1 IIIB infected in human MT4 cells assessed as protection against virus-induced cytopathic effect incubated for 5 days by spectrophotometric based MTT assay
Assay type: functional, organism-based
Details: Human immunodeficiency virus 1, IIIB, MT4, 120 h
Work on `Cc1[nH]c2ccc(F)cc2c1CC(=O)N[C@@H](Cc1cc(F)cc(F)c1)C(=O)N(C)c1ccc2scnc2c1` yielded an EC50 of 170 nM. For `Cc1ccc2[nH]cc(CC(=O)N[C@@H](Cc3cc(F)cc(F)c3)C(=O)N(C)c3ccc4scnc4c3)c2c1`, the EC50 was 42.4 nM. For `CN(C(=O)[C@H](Cc1cc(F)cc(F)c1)NC(=O)Cc1c[nH]c2cccc(Cl)c12)c1ccc2scnc2c1`, the EC50 was 186 nM. Work on `CN(C(=O)[C@H](Cc1cc(F)cc(F)c1)NC(=O)Cc1c[nH]c2cc(F)ccc12)c1ccc2scnc2c1` yielded an EC50 of 16.8 nM. `COc1ccc2[nH]cc(CC(=O)N[C@@H](Cc3cc(F)cc(F)c3)C(=O)N(C)c3ccc4scnc4c3)c2c1` showed an EC50 of 22.4 nM. For `CN(C(=O)[C@H](Cc1cc(F)cc(F)c1)NC(=O)Cc1c[nH]c2cc(Br)ccc12)c1ccc2scnc2c1`, the EC50 was 27.4 nM. `Cc1cc(C)n(CC(=O)N[C@@H](Cc2cc(F)cc(F)c2)C(=O)N(C)c2ccc3scnc3c2)n1` gave an EC50 of 269 nM.

System: not listed separately
Assay: Selectivity index, ratio of CC50 for human MT4 cells to EC50 for wild type HIV-1 IIIB infected in human MT4 cells
Assay type: toxicity, cell-based
Details: read-out: Selectivity Index
Compound `Cc1[nH]c2ccc(F)cc2c1CC(=O)N[C@@H](Cc1cc(F)cc(F)c1)C(=O)N(C)c1ccc2scnc2c1` has a selectivity ratio of 147. Work on `Cc1ccc2[nH]cc(CC(=O)N[C@@H](Cc3cc(F)cc(F)c3)C(=O)N(C)c3ccc4scnc4c3)c2c1` yielded a selectivity ratio of 621. In the case of `CN(C(=O)[C@H](Cc1cc(F)cc(F)c1)NC(=O)Cc1c[nH]c2cccc(Cl)c12)c1ccc2scnc2c1`, the selectivity ratio is reported as 132. `CN(C(=O)[C@H](Cc1cc(F)cc(F)c1)NC(=O)Cc1c[nH]c2cc(F)ccc12)c1ccc2scnc2c1` showed a selectivity ratio of 1500. For `COc1ccc2[nH]cc(CC(=O)N[C@@H](Cc3cc(F)cc(F)c3)C(=O)N(C)c3ccc4scnc4c3)c2c1`, the selectivity ratio was 3260. `CN(C(=O)[C@H](Cc1cc(F)cc(F)c1)NC(=O)Cc1c[nH]c2cc(Br)ccc12)c1ccc2scnc2c1` gave a selectivity ratio of 848. Compound `Cc1cc(C)n(CC(=O)N[C@@H](Cc2cc(F)cc(F)c2)C(=O)N(C)c2ccc3scnc3c2)n1` has a selectivity ratio of over 962.
